Data published in patent publication US8372848B2, “Melanin-concentrating hormone receptor antagonists and methods of use” (Mixture Sciences, Inc., priority 2004, dated 2013).
“Also recorded” adds a separate entry of the source.

Experiments:
[1] = biological target: kappa opioid receptor (dynorphin) (Homo sapiens, UniProt P41145); experiment: Selectivity versus kappa opioid receptor; format: cell-based
orexin 1R = biological target: T1, orexin 1R (Homo sapiens, UniProt O43613); experiment: Selectivity versus orexin 1R; format: cell-based
T1 sequence (O43613 1-425): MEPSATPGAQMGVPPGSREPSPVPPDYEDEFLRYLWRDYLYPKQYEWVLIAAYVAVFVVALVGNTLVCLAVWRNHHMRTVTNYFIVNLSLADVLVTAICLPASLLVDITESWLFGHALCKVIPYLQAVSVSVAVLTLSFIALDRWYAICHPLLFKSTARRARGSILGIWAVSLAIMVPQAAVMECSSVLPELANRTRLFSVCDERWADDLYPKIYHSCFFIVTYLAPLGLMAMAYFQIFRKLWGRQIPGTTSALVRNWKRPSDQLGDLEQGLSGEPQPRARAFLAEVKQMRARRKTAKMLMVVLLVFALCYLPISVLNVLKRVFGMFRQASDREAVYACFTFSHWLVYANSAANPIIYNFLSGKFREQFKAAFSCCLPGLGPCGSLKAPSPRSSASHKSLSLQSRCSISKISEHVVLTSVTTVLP

[2] = biological target: T2, prolactin releasing peptide (PrRP) receptor (Homo sapiens, UniProt P49683); experiment: Selectivity versus PrRP receptor; format: cell-based
T2 sequence (P49683 1-370): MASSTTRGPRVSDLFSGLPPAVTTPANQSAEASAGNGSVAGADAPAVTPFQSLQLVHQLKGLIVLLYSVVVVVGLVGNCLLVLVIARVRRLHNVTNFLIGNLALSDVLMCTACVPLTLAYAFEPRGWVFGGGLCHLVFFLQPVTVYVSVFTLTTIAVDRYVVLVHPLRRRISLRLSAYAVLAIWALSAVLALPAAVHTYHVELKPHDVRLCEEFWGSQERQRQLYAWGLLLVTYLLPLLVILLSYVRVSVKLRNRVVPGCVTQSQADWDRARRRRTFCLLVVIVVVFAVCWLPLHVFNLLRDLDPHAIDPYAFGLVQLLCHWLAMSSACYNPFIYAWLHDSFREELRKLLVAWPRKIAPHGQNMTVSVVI

rat MCH1R = rat MCH1R (Rattus norvegicus, UniProt P97639); experiment: MCH-induced Ca2+ mobilization (FLIPR) in HEK 293T cells expressing rat MCH1R; format: cell-based
rats = experiment: Conditioned place aversion (CPA), Example VII; format: in vivo, rat; details: 10 nmole i.c.v. on conditioning days 2,3; test day 4; listed as TPI
Description: Rats were randomly divided into two (2) groups of eight (8) rats each (Groups I and II). Testing was performed in four identical place-conditioning chambers (43×43×30.5 cm) connected to a common interface and computer (MED Associates, Inc., St. Albans, Vt.). Test chambers had two equal compartments, each with unique sensory cues. One compartment had black and white striped walls, a stainless-steel wire mesh floor (0.16-cm wire with 1.27-cm openings), corncob bedding, and lemon-scented water applied to the walls immediately before each test. The other compartment had white walls with black dots, stainless-steel grid floor (0.48-cm rods placed 1.6 cm apart), wood-chip bedding, and banana-scented water applied to the walls. The two compartments were separated by a middle wall with a black guillotine door in the center. All rats were weighed and acclimated to the test room for 20 min each day before being placed into the apparatus.
The CPA test consisted of three phases. During the preconditioning phase (day 1), the animals were placed into the chamber for 15 min. During the conditioning phase (day 2,3), animals were injected i.c.v with either 0 (Group I—n=8) or 10 nmole (Group 2—n=8) of TPI and confined to one side for 20 min. […] The activity of the animals was monitored for 15 min.

MCH1R = biological target: T3, MCH1R (Rattus norvegicus, UniProt P97639); experiment: Library screening: inhibition of 30 nM MCH-induced Ca2+ mobilization in CHO cells expressing MCH1R; format: cell-based; details: five concentrations, ten-fold dilutions starting at 10 µM
T3 construct: expressed in transfected cells; host or cells: CHO
Description: A total of thirteen heterocyclic or peptidomimetics PS-SCLs containing 8,136,870 individual compounds were tested (Table 1). Most libraries were generated in a PS format by using 40˜50 amino acids at each of the R1 and R2 positions, and 40˜80 carboxylic acids at the R3 position. A sample set of PS-SCLs was screened initially, sub-libraries with defined R3 positions and a mixture of building blocks at each of the other two positions were prepared (all compounds in the library are represented). Each sub-library was composed of 40˜80 mixtures containing 1,500˜3,200 individual compounds. […]
Each mixture was assayed in duplicate in three separate assays at three concentrations (1, 0.1 and 0.01 µg/ml) (FIG. 1B). MCH1R inhibition was calculated as the percent decrease in intracellular Ca^2+ mobilization in MCH1R expressing CHO cells induced by 30 nM MCH in the presence or absence of the mixture. […]
Transfected […] cells seeded on black-walled 96-well plates (Sigma, St Louis USA) were loaded for 1 h at 37° C. with Ca^2+-sensitive fluorescent dye, fluo-4 (Molecular Device, CA) in Hanks' balanced salt solution containing 20 mM HEPES (pH 7.4). The level of [Ca^2+]i was then monitored using a FLIPR system (Fluorometric Imaging Plate Reader; Molecular Devices, San Francisco, Calif.). […] Data were expressed as fluorescence (arbitrary units) versus time.

Chain of rat MCH1R (P97639 whole entry): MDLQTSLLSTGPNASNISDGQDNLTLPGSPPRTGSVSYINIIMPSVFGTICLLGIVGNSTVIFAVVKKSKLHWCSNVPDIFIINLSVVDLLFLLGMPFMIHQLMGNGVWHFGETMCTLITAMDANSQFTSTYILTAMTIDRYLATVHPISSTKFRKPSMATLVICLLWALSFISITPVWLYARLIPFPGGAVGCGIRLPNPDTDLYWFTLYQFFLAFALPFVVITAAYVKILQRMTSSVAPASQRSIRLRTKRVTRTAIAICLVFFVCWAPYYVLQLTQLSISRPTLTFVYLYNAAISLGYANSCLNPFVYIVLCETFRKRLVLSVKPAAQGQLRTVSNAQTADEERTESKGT
Chain of kappa opioid receptor (dynorphin) (P41145 whole entry): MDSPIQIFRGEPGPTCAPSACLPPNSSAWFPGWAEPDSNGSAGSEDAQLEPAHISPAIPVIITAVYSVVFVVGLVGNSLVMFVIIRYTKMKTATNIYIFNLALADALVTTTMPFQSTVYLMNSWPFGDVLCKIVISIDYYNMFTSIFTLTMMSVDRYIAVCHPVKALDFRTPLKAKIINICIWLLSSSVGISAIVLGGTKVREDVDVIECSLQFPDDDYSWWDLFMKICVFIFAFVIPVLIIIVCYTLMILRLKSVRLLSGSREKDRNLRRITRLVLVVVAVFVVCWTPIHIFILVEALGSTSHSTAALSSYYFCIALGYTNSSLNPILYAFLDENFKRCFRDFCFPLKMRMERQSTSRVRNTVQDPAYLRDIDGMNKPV
T3 sequence (P97639 whole entry): as the sequence (P97639 whole entry) above

C[C@@H](CNCc1ccccc1)N1C[C@H](CCCNC(=N)N)N(CCc2cccc(F)c2)C1=S [TPI 1361-17, N-(3-{(4S)-1-[(1S)-2-(benzylamino)-1-methylethyl]-3-[2-(3-fluorophenyl)ethyl]-2-thioxoimidazolidin-4-yl}propyl)guanidine]
Selectivity for MCH1R compared with kappa opioid receptor [1]: more than 1,000 fold
Selectivity for MCH1R compared with orexin 1R (orexin 1R): more than 1,000 fold
Selectivity for MCH1R compared with PrRP receptor [2]: more than 1,000 fold
IC50 (rat MCH1R; 1 nM MCH, HEK 293T cells expressing rat MCH1R): 6.1 nM
Slope of Schild regression (rat MCH1R; r2=0.975): 1.085±0.010
Kb (rat MCH1R; read-out: Kb predicted from Schild regression): 0.37 nM
pA2 (Schild regression) (rat MCH1R; shift of MCH dose response curves): 9.43
Change of basal Ca2+ level by the compound itself (rat MCH1R; without MCH): did not change the basal Ca^2+ level
Conditioned place aversion (rats): did not cause conditioned place aversion; also recorded: lack of conditioned place aversion
IC50 inhibiting 30 nM MCH-induced Ca2+ mobilization, 84 individual compounds (MCH1R): highest affinity
